“And” between values parts separate entries of the source, which are not always exact repeats. Identical values can stand only once.
What was measured:
Format in all cases: physicochemical
Solvatochromism of Flav7 = assay: Solvatochromism of Flav7
Excerpt: This family of flavylium dyes has photophysical qualities that are complementary to commonly used cyanine dyes. However, the premier dye in the series is the Flav7 (3) as few emissive polymethine dyes exist in this region. Thus, we thoroughly investigated its stability. First, we explored the solvatochromism of Flav7. […] However, in polar solvents, spectral broadening and accentuation of a high-energy shoulder were observed. This behavior is consistent with SWIR polymethine dyes that experience ground state symmetry breaking due to stabilization of an asymmetric electronic structure.

[1] = Absolute fluorescence quantum yield using an integrating sphere; conditions: dichloromethane; for ΦF (fluorescence quantum yield): absolute value
Protocol: Polymethine dyes disclosed herein are characterized with respect to their photophysics including absorption, emission, extinction coefficient, quantum yields, and fluorescence lifetime. All quantum yields values obtained are absolute quantum yields values measured using an integrating sphere. Photostabilities are evaluated by sample irradiation with high powered LEDs. Additionally, solvatochromism, solvent compatibility, and stability are assessed.

[2] = Emission spectra of the dyes in DCM; conditions: dichloromethane, dyes 1, 3-6 and reference dyes
Excerpt: (§1) The absorbance spectra in FIG. 2 and FIG. 5 were obtained in DCM on a JASCO V-770 UV-Visible/[…] spectrophotometer with a 2000 nm/min or 4000 nm/min scan rate. Plotted are the baseline corrected and normalized data. The emission spectra in FIG. 2 were taken in DCM on either a Horiba Instruments PTI QuantaMaster Series fluorometer (6), a Fluoromax-3 spectrofluorometer (1, 3-5), or home-built InGaAs array detector (Princeton Instruments). For 6 the following parameters were used: ex. 610 nm, emission collected from 620-900 nm, slits 5 nm, step size 1 nm, integration time 1 s. Plotted is the DCM corrected, baseline corrected, normalized data. For 1, and 3-5, the following parameters were used: slits 5 nm, step size 1 nm, integration time, 0.25 s. Excitation values and emission collection were as follows: 1 (ex. 460, collection 470-800 nm), 5 (ex. 675 nm, collection 685-950 nm), 4 (ex. 840 nm, emission 850-1100 nm), 3 (ex. 730 nm, emission 950-1400). Plotted are the baseline corrected, normalized data. The emission spectra in FIG. 5 were taken in dichloromethane on a Horiba Instruments QuantaMaster Series fluorometer with excitation slits: 15 nm, emission slits: 30 nm, step size: 1 nm, integration time: 0.1 s and excitation wavelengths as indicated.

[3] = Absorbance spectra of the dyes in DCM (UV-Visible/NIR spectrophotometer)
Excerpt: as §1

[4] = Stability of Flav7 in acetonitrile in the presence of methanol, ethanol or water (absorption over time, LCMS); conditions: for change of absorption over time: over 4 hours
Protocol: Concerned about the structure's susceptibility to nucleophilic attack, the stability of Flav7 in the presence of methanol, ethanol, and water was investigated. 3 was dissolved in acetonitrile, and 1-50% water, ethanol, or methanol was introduced. Changes in absorption spectra over time were monitored. […] Further evidence that 3 is stable to water include UV/Vis monitoring of the dose-dependent addition of water to 3 in acetonitrile followed by water removal.
(§2) Finally, the photoluminescence of Flav7 was compared to the prominent SWIR polymethine dyes, IR-26 and IR-1061. IR-26 has been widely-employed as a standard for this region, while IR-1061 has recently been the active component of nanomaterials for […] in vivo imaging. Despite numerous studies which rely on these dyes, the reported ΦF for IR-26 have been inconsistent, and the ΦF of IR-1061 has yet to be thoroughly characterized. Consequently, to establish that Flav7 is more emissive than existing SWIR polymethine dyes, each dye's emission was directly compared using a SWIR camera. We prepared solutions of 3, IR-26, and IR-1061 in dichloromethane with identical absorbance at 808 nm, excited with a diffuse 808 nm laser, and imaged their emission over 1000-1500 nm.

[5] = Comparative emission imaging with a SWIR InGaAs camera, 808 nm excitation
Excerpt: as §2
Spatially dispersed 808 nm illumination was used to image 1 ml samples in 2.5 mL cuvettes of the SWIR dyes alongside a DCM blank. Each dye was compared at the same position to ensure consistent camera illumination. SWIR images were collected on an InGaAs camera (Princeton Instruments, NIRvana 640) with a 1000 nm long-pass filter. The camera was cooled to −80° C., the analog to digital (AD) conversion rate set to 2 MHz, the gain set to high, and different exposure times used to achieve sufficient signal and/or frame rates. All images were background- and blemish-corrected within the LightField imaging software. […]

[6] = Photobleaching under continuous-wave irradiation at 532 nm; conditions: dichloromethane
Protocol: Photostabilities of the Flay series were measured under continuous-wave irradiation (532 nm, 0.53 fluence).

CN(C)c1ccc2c(c1)OC(c1ccccc1)=C/C2=C\C=C1/CCCC(/C=C/c2cc(-c3ccccc3)[o+]c3cc(N(C)C)ccc23)=C1Cl.[O-][Cl+3]([O-])([O-])[O-] [Dye 3, 4-((E)-2-((E)-2-chloro-3-(2-((E)-7-(dimethylamino)-2-phenyl-4H-chromen-4-ylidene)ethylidene)cyclohex-1-en-1-yl)vinyl)-7-(dimethylamino)-2-phenylchromenylium perchlorate]
variation of λmax,abs between solvents (Solvatochromism of Flav7; dichloromethane, dimethyl sulfoxide, acetonitrile, tetrahydrofuran, acetone): minimal variation
behaviour in methanol (Solvatochromism of Flav7; methanol as solvent): immediate color change
QE, εΦF (quantum efficiency) [1]: 1200 M⁻¹ cm⁻¹
ΦF (fluorescence quantum yield) [1]: 0.53±0.03% and 0.53%
ΦF (fluorescence quantum yield) ([1]; listed as Flav7): 0.53% and 0.53±0.3%
QE, εΦF (quantum efficiency) ([1]; listed as Flav7): 1,200 M^−1cm^−1
emission (DCM) λmax [2]: 1045 nm
emission (DCM) λmax ([2]; listed as Flav7): 1061 nm and 1045 nm
absorption red shift past IR-27 [3]: ~40 nm
absorption (DCM) λmax ([3]; dichloromethane, in example paragraphs the longest-wavelength absorbance peak): 1026 nm
degradation by LCMS over time ([4]; 0.1 mg/mL in acetonitrile with 10% water): no appreciable degradation
change of λmax,abs at 1013 nm ([4]; acetonitrile with 1% methanol): rapid loss
change of absorption over time ([4]; acetonitrile with 10% ethanol): slight loss
change of absorption over time ([4]; acetonitrile with 10% water): no significant change
absorbance at 1013 nm after water addition and water removal ([4]; acetonitrile, dose-dependent water addition followed by water removal, UV/Vis): restored upon water removal
brightness relative to IR-26 [5]: 13 times
emission intensity compared with the other SWIR dyes ([5]; dichloromethane, identical absorbance at 808 nm, emission 1000-1500 nm): brightest of the three dyes
relative rate, krel (photobleaching) ([6]; 532 nm irradiation): 40. ± 6.
raw rate, k (photobleaching) ([6]; continuous-wave irradiation 532 nm, 0.53 fluence): 28. ± 3. s^−1 × 10^−3
ε at 532 nm [6]: 1.4 ± 0.2 M^−1cm^−1 × 10^4

From US11292778B2, “Heterocyclyl polymethine IR chromophores” (The Regents of the University of California, priority 2017, dated 2022)
